What all share (assay): biochemical
What all share (design): species or system HEK293/K-562/placenta mixed human extract; Kinobeads chemoproteomic competition binding, quantified by TMT LC-MS/MS, dose response up to 20 uM

The target in assay [1] is ACVR1B (Homo sapiens, UniProt P36896).
The target in assay [2] is PFKL (Homo sapiens, UniProt P17858).
For assay [3], the target named is KDR (Homo sapiens, UniProt P35968).
Assay [4] concerns the target PRKD1 (Homo sapiens, UniProt Q15139).
For assay [5], the target named is PIK3C2B (Homo sapiens, UniProt O00750).
Assay [6] concerns the target CSNK1E (Homo sapiens, UniProt P49674).
Assay [7] addresses EPHA2 (Homo sapiens, UniProt P29317).
For assay [8], the target named is NRK (Homo sapiens, UniProt Q7Z2Y5).
The target of assay [9] is PIK3C3 (Homo sapiens, UniProt Q8NEB9).
Assay [10] addresses PRKCA (Homo sapiens, UniProt P17252).
For assay [11], the target named is PKMYT1 (Homo sapiens, UniProt Q99640).
Assay [12] addresses CSNK2A2 (Homo sapiens, UniProt P19784).
For assay [13], the target named is JAK3 (Homo sapiens, UniProt P52333).
The target of assay [14] is STK4 (Homo sapiens, UniProt Q13043).
In assay [15] the target is TAOK3 (Homo sapiens, UniProt Q9H2K8).
In assay [16] the target is ITK (Homo sapiens, UniProt Q08881).
For assay [17], the target named is BMP2K (Homo sapiens, UniProt Q9NSY1).
Sequence of BMP2K (Q9NSY1 whole entry): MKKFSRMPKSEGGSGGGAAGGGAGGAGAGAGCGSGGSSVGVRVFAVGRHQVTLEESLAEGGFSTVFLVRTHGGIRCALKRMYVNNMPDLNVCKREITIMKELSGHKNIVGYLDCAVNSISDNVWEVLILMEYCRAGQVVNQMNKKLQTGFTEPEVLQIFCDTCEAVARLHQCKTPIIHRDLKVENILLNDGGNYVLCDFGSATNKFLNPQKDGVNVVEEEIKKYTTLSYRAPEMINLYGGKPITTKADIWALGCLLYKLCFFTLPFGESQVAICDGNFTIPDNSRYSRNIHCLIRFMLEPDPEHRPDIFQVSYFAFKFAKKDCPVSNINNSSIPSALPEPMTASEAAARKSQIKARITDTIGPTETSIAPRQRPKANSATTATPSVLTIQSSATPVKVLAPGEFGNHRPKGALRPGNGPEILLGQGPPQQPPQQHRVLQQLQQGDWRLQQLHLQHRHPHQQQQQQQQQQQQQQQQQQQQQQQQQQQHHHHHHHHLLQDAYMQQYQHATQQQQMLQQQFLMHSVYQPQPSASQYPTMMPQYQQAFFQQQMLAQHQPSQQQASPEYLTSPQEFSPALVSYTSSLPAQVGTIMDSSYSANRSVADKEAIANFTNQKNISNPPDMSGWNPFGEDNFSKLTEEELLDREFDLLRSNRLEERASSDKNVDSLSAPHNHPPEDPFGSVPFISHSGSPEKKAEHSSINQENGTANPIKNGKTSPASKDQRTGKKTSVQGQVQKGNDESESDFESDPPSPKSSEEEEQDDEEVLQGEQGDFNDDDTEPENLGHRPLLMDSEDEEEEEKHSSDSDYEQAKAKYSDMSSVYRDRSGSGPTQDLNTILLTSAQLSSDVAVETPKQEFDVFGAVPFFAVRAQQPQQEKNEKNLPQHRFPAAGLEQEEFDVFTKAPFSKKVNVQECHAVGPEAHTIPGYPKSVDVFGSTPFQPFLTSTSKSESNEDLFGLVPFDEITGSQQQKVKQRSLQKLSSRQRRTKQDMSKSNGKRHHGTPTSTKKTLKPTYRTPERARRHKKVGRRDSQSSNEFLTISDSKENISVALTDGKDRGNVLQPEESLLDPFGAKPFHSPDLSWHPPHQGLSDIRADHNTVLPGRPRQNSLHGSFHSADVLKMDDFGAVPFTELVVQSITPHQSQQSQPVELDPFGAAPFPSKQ
Assay [18] concerns the target CDK5 (Homo sapiens, UniProt Q00535).
Assay [19] addresses PRKCQ (Homo sapiens, UniProt Q04759).
Assay [20] deals with LATS2 (Homo sapiens, UniProt Q9NRM7).
Sequence of LATS2 (Q9NRM7 whole entry): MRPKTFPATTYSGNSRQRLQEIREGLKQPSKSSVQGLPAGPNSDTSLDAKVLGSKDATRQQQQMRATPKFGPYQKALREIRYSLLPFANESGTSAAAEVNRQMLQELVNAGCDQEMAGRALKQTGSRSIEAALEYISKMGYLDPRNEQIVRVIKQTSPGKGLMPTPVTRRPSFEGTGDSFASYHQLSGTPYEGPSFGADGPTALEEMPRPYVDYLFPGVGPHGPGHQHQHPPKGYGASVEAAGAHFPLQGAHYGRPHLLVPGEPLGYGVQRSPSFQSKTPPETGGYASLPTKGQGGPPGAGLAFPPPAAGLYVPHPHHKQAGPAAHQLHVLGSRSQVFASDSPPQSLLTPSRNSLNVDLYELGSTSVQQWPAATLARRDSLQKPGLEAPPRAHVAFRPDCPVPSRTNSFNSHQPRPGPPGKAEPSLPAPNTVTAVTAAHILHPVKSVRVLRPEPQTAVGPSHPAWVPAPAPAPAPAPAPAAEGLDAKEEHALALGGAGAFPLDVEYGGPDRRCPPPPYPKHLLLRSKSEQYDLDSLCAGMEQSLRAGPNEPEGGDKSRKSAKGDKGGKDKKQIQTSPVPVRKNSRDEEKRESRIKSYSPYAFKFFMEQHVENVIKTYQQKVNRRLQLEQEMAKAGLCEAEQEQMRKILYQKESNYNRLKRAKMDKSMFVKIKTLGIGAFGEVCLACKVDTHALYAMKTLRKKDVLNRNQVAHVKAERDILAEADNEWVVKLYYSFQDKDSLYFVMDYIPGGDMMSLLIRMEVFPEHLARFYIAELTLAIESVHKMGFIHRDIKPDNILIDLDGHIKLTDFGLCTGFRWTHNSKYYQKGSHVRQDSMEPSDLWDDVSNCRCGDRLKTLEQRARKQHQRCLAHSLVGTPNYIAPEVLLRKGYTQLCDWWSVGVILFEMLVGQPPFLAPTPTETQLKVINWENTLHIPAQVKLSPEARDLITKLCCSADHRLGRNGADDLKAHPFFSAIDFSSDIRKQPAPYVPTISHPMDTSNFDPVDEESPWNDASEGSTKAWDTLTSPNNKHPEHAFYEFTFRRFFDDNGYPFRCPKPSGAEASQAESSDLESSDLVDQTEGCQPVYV
The target in assay [21] is mTOR (Homo sapiens, UniProt P42345).

Sequence of ACVR1B (P36896 whole entry): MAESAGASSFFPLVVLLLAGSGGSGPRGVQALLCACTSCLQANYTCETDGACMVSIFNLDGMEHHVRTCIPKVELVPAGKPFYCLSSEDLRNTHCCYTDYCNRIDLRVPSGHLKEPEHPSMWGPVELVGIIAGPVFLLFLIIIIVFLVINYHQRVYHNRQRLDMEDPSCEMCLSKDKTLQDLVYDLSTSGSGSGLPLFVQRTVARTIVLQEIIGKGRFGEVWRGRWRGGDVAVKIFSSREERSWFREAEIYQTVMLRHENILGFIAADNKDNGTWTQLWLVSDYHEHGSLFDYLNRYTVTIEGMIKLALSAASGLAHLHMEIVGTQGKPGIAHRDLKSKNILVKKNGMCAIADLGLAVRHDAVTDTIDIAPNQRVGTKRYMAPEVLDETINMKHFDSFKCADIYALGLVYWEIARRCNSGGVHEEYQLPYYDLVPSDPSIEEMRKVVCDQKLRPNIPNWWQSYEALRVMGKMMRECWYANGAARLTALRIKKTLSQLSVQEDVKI
Sequence of KDR (P35968 whole entry): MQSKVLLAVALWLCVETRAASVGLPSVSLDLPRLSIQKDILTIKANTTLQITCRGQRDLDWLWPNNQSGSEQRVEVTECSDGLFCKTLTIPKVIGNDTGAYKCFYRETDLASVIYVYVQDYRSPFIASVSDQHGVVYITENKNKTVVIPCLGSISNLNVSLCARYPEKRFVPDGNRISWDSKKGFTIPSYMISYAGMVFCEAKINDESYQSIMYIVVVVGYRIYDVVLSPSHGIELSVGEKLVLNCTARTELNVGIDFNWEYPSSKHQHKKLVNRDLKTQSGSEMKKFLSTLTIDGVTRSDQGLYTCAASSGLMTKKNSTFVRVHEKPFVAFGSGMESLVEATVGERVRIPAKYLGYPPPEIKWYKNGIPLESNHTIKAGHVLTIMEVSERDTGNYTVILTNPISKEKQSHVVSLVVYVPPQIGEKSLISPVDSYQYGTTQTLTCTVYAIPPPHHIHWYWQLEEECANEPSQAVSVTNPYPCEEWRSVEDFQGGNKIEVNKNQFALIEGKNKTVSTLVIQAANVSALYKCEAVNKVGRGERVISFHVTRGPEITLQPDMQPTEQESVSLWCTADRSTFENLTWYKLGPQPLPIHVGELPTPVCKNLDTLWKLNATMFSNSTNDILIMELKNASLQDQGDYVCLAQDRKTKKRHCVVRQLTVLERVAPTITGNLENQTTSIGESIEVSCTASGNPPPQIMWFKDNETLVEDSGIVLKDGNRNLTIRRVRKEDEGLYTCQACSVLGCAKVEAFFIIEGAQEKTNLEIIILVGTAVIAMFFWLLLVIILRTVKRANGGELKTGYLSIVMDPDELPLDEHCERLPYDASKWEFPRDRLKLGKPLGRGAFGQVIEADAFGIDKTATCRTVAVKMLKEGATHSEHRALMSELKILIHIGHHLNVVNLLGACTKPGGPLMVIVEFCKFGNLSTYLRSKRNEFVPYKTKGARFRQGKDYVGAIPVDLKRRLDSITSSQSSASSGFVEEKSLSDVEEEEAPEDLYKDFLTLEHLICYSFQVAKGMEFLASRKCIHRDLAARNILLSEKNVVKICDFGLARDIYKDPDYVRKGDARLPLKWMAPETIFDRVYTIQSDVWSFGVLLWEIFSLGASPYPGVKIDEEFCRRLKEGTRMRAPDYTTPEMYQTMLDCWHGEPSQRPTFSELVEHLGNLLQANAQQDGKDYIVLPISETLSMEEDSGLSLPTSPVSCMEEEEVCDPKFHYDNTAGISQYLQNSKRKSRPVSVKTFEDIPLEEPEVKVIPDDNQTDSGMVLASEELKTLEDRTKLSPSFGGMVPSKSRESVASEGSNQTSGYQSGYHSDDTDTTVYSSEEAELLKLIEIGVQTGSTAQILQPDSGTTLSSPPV
Sequence of CDK5 (Q00535 whole entry): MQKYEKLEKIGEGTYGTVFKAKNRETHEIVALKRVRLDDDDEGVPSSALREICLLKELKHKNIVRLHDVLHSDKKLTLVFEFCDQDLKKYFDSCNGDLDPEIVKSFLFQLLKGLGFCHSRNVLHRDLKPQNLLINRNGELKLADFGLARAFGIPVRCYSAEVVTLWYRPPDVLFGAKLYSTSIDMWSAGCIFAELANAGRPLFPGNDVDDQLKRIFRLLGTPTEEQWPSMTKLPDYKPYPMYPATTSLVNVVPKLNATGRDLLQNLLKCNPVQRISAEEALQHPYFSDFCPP

As for `COc1ccccc1-c1n[nH]c2nc(N[C@H]3CC[C@H](NS(=O)(=O)CCC(F)(F)F)CC3)nc(OC)c12` [compound 31, 3,3,3-Trifluoro-N-(trans-4-((4-methoxy-3-(2-methoxyphenyl)-1H-pyrazolo[3,4-d]pyrimidin-6-yl)amino)cyclohexyl)propane-1-sulfonamide], the IC50 was no less than 20 µM in assay [1]; no less than 20 µM in [2]; no less than 20 µM in assay [3]; no less than 20 µM in assay [4]; no less than 20 µM in assay [5]; 7.7 µM in assay [6]. The IC50 in assay [7], in assay [8], in assay [9], in assay [10], in assay [11] and in assay [12] was no less than 20 µM each time. Moreover, the IC50 in [13] is no less than 20 µM; in assay [14] it was no less than 20 µM; in assay [15], 0.93 µM; in assay [16], no less than 20 µM; in assay [17], no less than 20 µM; in [18] it was 1.2 µM. Moreover, the IC50 in [19], in assay [20] and in [21] was no less than 20 µM each time.
